Source: PubChem BioAssay AID248 (DTP/NCI, 2004)
Values joined by “and” are separate entries in the source; they are usually repeats but may differ in a detail not shown here. Identical values can stand only once. Toxic doses and inconclusive results are not listed. Cut-off read from the data, not from the text of the source: active = T/C of 150% or more; inactive = T/C below 125%.

Tested on: L1210 leukemia ip in BDF1 mice, survival T/C
Assay: NCI In Vivo Anticancer Drug Screen. Data for tumor model L1210 Leukemia (intraperitoneal) in B6D2F1 (BDF1) mice
Conditions: endpoint: mean survival time, higher = longer survival
Summary of the method: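 Ratio derived from survival: compound-dosed mice over vehicle-dosed mice, all bearing a transplantable tumor.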

[1] = dose: 100.0 mg/kg/injection, schedule: Q01DX001 (ip), vehicle: Klucel (hydroxypropylcellulose) (HPC)
[2] = dose: 100.0 mg/kg/injection, schedule: Q01DX009 (ip), vehicle: Klucel (hydroxypropylcellulose) (HPC)
[3] = dose: 100.0 mg/kg/injection, schedule: Q04DX003 (ip), vehicle: Klucel (hydroxypropylcellulose) (HPC)
[4] = dose: 200.0 mg/kg/injection, schedule: Q01DX009 (ip), vehicle: Klucel (hydroxypropylcellulose) (HPC)
[5] = dose: 200.0 mg/kg/injection, schedule: Q04DX003 (ip), vehicle: Klucel (hydroxypropylcellulose) (HPC)
[6] = dose: 400.0 mg/kg/injection, schedule: Q01DX009 (ip), vehicle: Klucel (hydroxypropylcellulose) (HPC)
[7] = dose: 400.0 mg/kg/injection, schedule: Q04DX003 (ip), vehicle: Klucel (hydroxypropylcellulose) (HPC)
[8] = dose: 100.0 mg/kg/injection, schedule: Q01DX001 (ip), vehicle: saline
[9] = dose: 200.0 mg/kg/injection, schedule: Q01DX001 (ip), vehicle: saline
[10] = dose: 100.0 mg/kg/injection, schedule: Q04DX002 (ip), vehicle: Klucel (hydroxypropylcellulose) (HPC)
[11] = dose: 100.0 mg/kg/injection, schedule: Q04DX002 (ip), vehicle: saline
[12] = dose: 200.0 mg/kg/injection, schedule: Q04DX002 (ip), vehicle: Klucel (hydroxypropylcellulose) (HPC)
[13] = dose: 200.0 mg/kg/injection, schedule: Q04DX002 (ip), vehicle: saline
[14] = dose: 400.0 mg/kg/injection, schedule: Q04DX002 (ip), vehicle: saline
[15] = dose: 75.0 mg/kg/injection, schedule: Q01DX001 (ip), vehicle: saline
[16] = dose: 150.0 mg/kg/injection, schedule: Q01DX001 (ip), vehicle: saline
[17] = dose: 200.0 mg/kg/injection, schedule: Q01DX001 (ip), vehicle: Klucel (hydroxypropylcellulose) (HPC)
[18] = dose: 400.0 mg/kg/injection, schedule: Q01DX001 (ip), vehicle: Klucel (hydroxypropylcellulose) (HPC)
[19] = dose: 400.0 mg/kg/injection, schedule: Q04DX002 (ip), vehicle: Klucel (hydroxypropylcellulose) (HPC)
[20] = dose: 100.0 mg/kg/injection, schedule: Q01DX001 (ip), vehicle: carboxymethylcellulose (CMC)
[21] = dose: 200.0 mg/kg/injection, schedule: Q01DX001 (ip), vehicle: carboxymethylcellulose (CMC)
[22] = dose: 400.0 mg/kg/injection, schedule: Q01DX001 (ip), vehicle: carboxymethylcellulose (CMC)
[23] = dose: 100.0 mg/kg/injection, schedule: Q04DX003 (ip), vehicle: saline
[24] = dose: 200.0 mg/kg/injection, schedule: Q04DX003 (ip), vehicle: saline

Measured: T/C

CC(=O)Nc1nc(C)c(CCCNS(=O)(=O)c2ccc(N)cc2)c(=O)[nH]1
inactive: dose: 25.0 mg/kg/injection, schedule: Q01DX001 (ip), vehicle: Klucel (hydroxypropylcellulose) (HPC) 102 % of control | dose: 50.0 mg/kg/injection, schedule: Q01DX001 (ip), vehicle: Klucel (hydroxypropylcellulose) (HPC) 92 % of control | [1] 95 % of control

CCCCC(CC)COC(=O)/C=C/C(=O)OCC(CC)CCCC (stereo unspecified)
inactive: [2] 96 % of control | [3] 101 % of control | [4] 107 % of control | [5] 95 % of control | [6] 107 % of control | [7] 93 % of control

CCOc1ccc(/C=N\NC(=O)CCCC(=O)N/N=C/c2ccc(OCC)c(OCC)c2)cc1OCC
inactive: dose: 50.0 mg/kg/injection, schedule: Q01DX001 (ip), vehicle: saline 103 % of control | [8] 95 % of control | [9] 87 % of control

Cc1ccc(C/C(Cc2ccccc2)=N/O)cc1
inactive: dose: 25.0 mg/kg/injection, schedule: Q04DX002 (ip), vehicle: Klucel (hydroxypropylcellulose) (HPC) 101 % of control | dose: 50.0 mg/kg/injection, schedule: Q04DX002 (ip), vehicle: Klucel (hydroxypropylcellulose) (HPC) 111 % of control | [10] 93 % of control | [11] 111 % of control | [12] 108 % of control | [13] 97 % of control | [14] 87 % of control

Cc1ccc(N)cc1S(=O)(=O)F
inactive: [15] 107 % of control | [16] 98 % of control | dose: 300.0 mg/kg/injection, schedule: Q01DX001 (ip), vehicle: saline 103 % of control

CC(=O)c1ccccc1Cc1cccc2c(Cl)cccc12
inactive: [3] 95 % of control | [5] 100 % of control | [7] 88 % of control

CC(C)(CNC1CCCC1)OC(=O)c1ccccc1
inactive: [15] 97 % of control and 95 % of control | [16] 107 % of control

NC(=O)c1cccc([N+](=O)[O-])c1Br
inactive: [3] 103 % of control | [5] 98 % of control

O=C(O)CCSSc1ccc([N+](=O)[O-])cc1[N+](=O)[O-]
inactive: dose: 12.5 mg/kg/injection, schedule: Q01DX009 (ip), vehicle: Klucel (hydroxypropylcellulose) (HPC) 96 % of control | dose: 12.5 mg/kg/injection, schedule: Q04DX003 (ip), vehicle: Klucel (hydroxypropylcellulose) (HPC) 98 % of control | dose: 25.0 mg/kg/injection, schedule: Q01DX009 (ip), vehicle: Klucel (hydroxypropylcellulose) (HPC) 99 % of control | dose: 25.0 mg/kg/injection, schedule: Q04DX003 (ip), vehicle: Klucel (hydroxypropylcellulose) (HPC) 107 % of control | dose: 50.0 mg/kg/injection, schedule: Q04DX003 (ip), vehicle: Klucel (hydroxypropylcellulose) (HPC) 105 % of control

CC1Cc2cccc3cc4c(ccc5ccccc54)c1c23 (stereo unspecified)
inactive: [1] 98 % of control and 104 % of control | [17] 97 % of control and 103 % of control | [18] 95 % of control and 110 % of control

CCOC(=O)c1cnc(N)nc1
inactive: [3] 97 % of control | [5] 101 % of control | [7] 98 % of control

COc1ccc(C2=CC=C(c3ccccc3)C2)cc1N
inactive: [1] 90 % of control | [17] 95 % of control | [18] 90 % of control

CC(C)c1ccc2ccccc2c1
inactive: dose: 100.0 mg/kg/injection, schedule: Q01DX009 (ip), vehicle: saline with Tween-80 95 % of control | dose: 200.0 mg/kg/injection, schedule: Q01DX009 (ip), vehicle: saline with Tween-80 107 % of control

O=C(Nc1ccccc1)NC(C(=O)O)(c1ccccc1)c1ccccc1
inactive: dose: 50.0 mg/kg/injection, schedule: Q01DX001 (ip), vehicle: other 97 % of control | dose: 100.0 mg/kg/injection, schedule: Q01DX001 (ip), vehicle: other 89 % of control | dose: 200.0 mg/kg/injection, schedule: Q01DX001 (ip), vehicle: other 92 % of control

O=S(=O)(c1ccccc1)S(=O)(=O)c1ccccc1
inactive: [2] 107 % of control | [10] 105 % of control | [4] 88 % of control | [12] 86 % of control | [6] 96 % of control | [19] 90 % of control

Cc1ccc(C(O)c2nnc(C(O)c3ccc(C)cc3)nn2)cc1 (stereo unspecified)
inactive: [10] 88 % of control and 107 % of control and 100 % of control | [12] 100 % of control and 96 % of control | [19] 96 % of control and 100 % of control

CCCCCCCC(C(=O)OCC)C(=O)OCC
inactive: [20] 103 % of control | [21] 100 % of control | [22] 100 % of control

CCOC(=O)C(Oc1ccc([N+](=O)[O-])cc1)C(=O)OCC
inactive: [2] 98 % of control | [4] 98 % of control | [6] 96 % of control

CSc1ccc(OC(=O)Nc2cccc(F)c2)cc1
inactive: [1] 88 % of control | [2] 105 % of control and 109 % of control | [10] 101 % of control and 91 % of control | [3] 104 % of control and 124 % of control | [17] 101 % of control | [4] 100 % of control and 101 % of control | [12] 94 % of control and 98 % of control | [5] 107 % of control and 120 % of control | [18] 104 % of control | [6] 109 % of control and 90 % of control | [19] 93 % of control and 94 % of control | [7] 104 % of control

CCCCCCOC(=O)CCCc1ccc(N(CCCl)CCCl)cc1
inactive: [11] 114 % of control | [13] 111 % of control | [14] 124 % of control

O=[N+]([O-])c1ccc(-c2nn[nH]n2)cc1
inactive: [8] 92 % of control | [23] 103 % of control | [9] 103 % of control | [24] 93 % of control | dose: 264.0 mg/kg/injection, schedule: Q04DX003 (ip), vehicle: acetone 96 % of control | dose: 264.0 mg/kg/injection, schedule: Q04DX003 (ip), vehicle: saline with Tween-80 106 % of control | dose: 400.0 mg/kg/injection, schedule: Q01DX001 (ip), vehicle: saline 105 % of control | dose: 400.0 mg/kg/injection, schedule: Q04DX003 (ip), vehicle: acetone 102 % of control

Nc1ccc(OCc2ccc(S(=O)(=O)F)c(Cl)c2)c(Cl)c1
inactive: dose: 100.0 mg/kg/injection, schedule: Q01DX009 (ip), vehicle: other 91 % of control | [23] 93 % of control | dose: 200.0 mg/kg/injection, schedule: Q01DX009 (ip), vehicle: other 92 % of control | [24] 95 % of control | dose: 400.0 mg/kg/injection, schedule: Q04DX003 (ip), vehicle: saline 98 % of control

O=C(O)CCCc1nc2ccccc2c(=O)[nH]1
inactive: dose: 44.0 mg/kg/injection, schedule: Q01DX001 (ip), vehicle: carboxymethylcellulose (CMC) 101 % of control and 103 % of control | dose: 50.0 mg/kg/injection, schedule: Q01DX001 (ip), vehicle: carboxymethylcellulose (CMC) 108 % of control | dose: 66.0 mg/kg/injection, schedule: Q01DX001 (ip), vehicle: carboxymethylcellulose (CMC) 98 % of control and 103 % of control | [20] 98 % of control and 100 % of control | dose: 150.0 mg/kg/injection, schedule: Q01DX001 (ip), vehicle: carboxymethylcellulose (CMC) 93 % of control and 100 % of control | [21] 106 % of control | [22] 101 % of control

Cc1cccc(OCC(O)CN2CCN(c3ccccc3)CC2)c1 (stereo unspecified)
inactive: dose: 50.0 mg/kg/injection, schedule: Q01DX009 (ip), vehicle: Klucel (hydroxypropylcellulose) (HPC) 104 % of control | [2] 101 % of control | [4] 115 % of control
